From patent US7972645B2, “Dioscorea extracts for enhancing immune system” (Academia Sinica, priority 2003, dated 2011)

System: NF-κB-inducible ELAM-1 composite promoter
Test: NF-κB-inducible ELAM-1 composite promoter reporter (SEAP) assay in transfected B16 melanoma cells
Assay type: cell-based
Details: Polymyxin B 400 U
Method: Briefly, B16 melanoma cells were transfected with a vector carrying the human secreted embryonic alkaline phosphatase (SEAP) gene, whose expression is under the control of a NF-κB-inducible ELAM-1 composite promoter, using a standard method for reporter (SEAP) assay. B16 melanoma cells were transfected with the NF-kB-inducible reporter plasmid pNiFty-SEAP (InvivoGen) in the presence of lipofectin (Invitrogen) for 24 hours. The SEAP secreted into medium was measured according to the manufacturer's instructions (Phospha-Light™ System, Applied Biosystems).
The transfected cells were then incubated with DsCE-I before the chemiluminescent reporter gene assays were conducted. It was known that LPS increased the activity of NF-κB and p38MAPK was involved in the LPS-induced activation. Therefore, LPS (0.1 μg/ml) was used as a positive control (Group A) and the corresponding […] was normalized as 100%. To illustrate the specificity, the effects of inhibitors of the LPS-induced activation were also examined. These inhibitors included SB203580 (“SB,” a p38MAPK inhibitor), PDTC (“PD,” a NF-κB inhibitor), and Polymyxin B (“PB,” an LPS-binding antibiotic). The solvent used to prepare the reagents was used as a negative control (Group J).

Q: What does the source list for Polymyxin B?
A: Inhibition of DsCE-I-induced activation (in words) (DsCE-I 100 μg/ml): only partially inhibited; Inhibition of LPS-induced activation (in words) (LPS 0.1 μg/ml): inhibited LPS-induced activation completely
